Measured values: US20070049593A1 (priority 2004, published 2007)
Structures can show the parent of a compound that is named as a salt.

Biological target: T1, HCV polymerase (Hepatitis C virus genotype 1b, UniProt P26663)
T1 construct: a region encoding NS5B (J Virol 1991 March, 65(3), 1105-13, 544 amino acids after deletion of 47 amino acids on the C-terminal); 6xHis (C); made in house; host or cells: Escherichia coli
Experiment: biochemical
Parameters: species or system HCV BK strain
In short: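 His-tagged NS5B (BK strain, 47-aa C-terminal deletion, E. coli-expressed) at 0.5 μg/ml copied 5 μg/ml run-off RNA bearing the HCV 3′ UTR with 2 μM UTP plus [3H]UTP, 50 μM ATP/GTP, in pH 7.5 Tris with 5 mM MgCl2, 25 °C, 90 min. TCA-precipitated RNA was counted and IC50 calculated.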

T1 sequence (P26663 2420-2963): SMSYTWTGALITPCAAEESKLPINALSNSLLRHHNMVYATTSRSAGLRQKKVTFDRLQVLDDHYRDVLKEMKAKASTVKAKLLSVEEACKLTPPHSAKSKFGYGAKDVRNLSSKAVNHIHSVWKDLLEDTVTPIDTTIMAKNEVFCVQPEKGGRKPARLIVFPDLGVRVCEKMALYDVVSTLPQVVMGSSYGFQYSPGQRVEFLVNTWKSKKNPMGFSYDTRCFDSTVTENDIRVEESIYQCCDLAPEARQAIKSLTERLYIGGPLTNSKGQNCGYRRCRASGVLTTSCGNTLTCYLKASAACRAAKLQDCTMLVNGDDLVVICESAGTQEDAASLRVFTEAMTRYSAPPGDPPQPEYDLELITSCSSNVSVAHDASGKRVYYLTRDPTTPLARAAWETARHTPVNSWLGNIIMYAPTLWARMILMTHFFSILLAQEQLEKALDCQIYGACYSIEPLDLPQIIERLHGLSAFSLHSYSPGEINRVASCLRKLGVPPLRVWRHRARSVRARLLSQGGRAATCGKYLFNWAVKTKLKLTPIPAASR

Structure (SMILES)	IC50
COC(=O)c1ccc2c(C3CCCCC3)c3n(c2c1)CCN(CCN(C)C)c1cc(OCc2cccc(C(=O)O)c2)ccc1-3 [Example 1-583, methyl 3-(3-carboxybenzyloxy)-13-cyclohexyl-5-(2-dimethylaminoethyl)-6,7-dihydro-5H-benzo[5,6][1,4]diazepino[7,1-a]indole-10-carboxylate dihydrochloride]	100 to 1000 nM
CN(C)CCN1CCn2c(c(C3CCCCC3)c3ccc(C(=O)O)cc32)-c2ccc(OCCCN3CCCCC3)cc21 [Example 1-584, 13-cyclohexyl-5-(2-dimethylaminoethyl)-3-[3-(piperidin-1-yl)propoxy]-6,7-dihydro-5H-benzo[5,6][1,4]diazepino[7,1-a]indole-10-carboxylic acid trihydrochloride]	< 100 nM
CN(C)CCN1CCn2c(c(C3CCCCC3)c3ccc(C(=O)O)cc32)-c2ccc(OCc3cccc(N4CCCC4=O)c3)cc21 [Example 1-585, 13-cyclohexyl-5-(2-dimethylaminoethyl)-3-[3-(2-oxopyrrolidin-1-yl)benzyloxy]-6,7-dihydro-5H-benzo[5,6][1,4]diazepino[7,1-a]indole-10-carboxylic acid trihydrochloride]	< 100 nM
CN(C)CCN1CCn2c(c(C3CCCCC3)c3ccc(C(=O)O)cc32)-c2ccc(OCc3cccc(C(=O)O)c3)cc21 [Example 1-586, 3-(3-carboxybenzyloxy)-13-cyclohexyl-5-(2-dimethylaminoethyl)-6,7-dihydro-5H-benzo[5,6][1,4]diazepino[7,1-a]indole-10-carboxylic acid dihydrochloride]	< 100 nM
CN(C)CCN1CCn2c(c(C3CCCCC3)c3ccc(C(=O)O)cc32)-c2ccc(OCc3cccc(C(=O)N(C)C)c3)cc21 [Example 1-587, 13-cyclohexyl-5-(2-dimethylaminoethyl)-3-(3-dimethylcarbamoylbenzyloxy)-6,7-dihydro-5H-benzo[5,6][1,4]diazepino[7,1-a]indole-10-carboxylic acid dihydrochloride]	< 100 nM
Cc1ccc2c(c1)N(CCc1nc(C)cs1)CCn1c-2c(C2CCCCC2)c2ccc(C(=O)O)cc21 [Example 1-588, 13-cyclohexyl-3-methyl-5-[2-(4-methylthiazol-2-yl)ethyl]-6,7-dihydro-5H-benzo[5,6][1,4]diazepino[7,1-a]indole-10-carboxylic acid]	< 100 nM
Cc1cccc(COc2ccc3c(c2)N(CCN(C)C)CCn2c-3c(C3CCCCC3)c3ccc(C(=O)O)cc32)n1 [Example 1-589, 13-cyclohexyl-5-(2-dimethylaminoethyl)-3-(6-methylpyridin-2-ylmethoxy)-6,7-dihydro-5H-benzo[5,6][1,4]diazepino[7,1-a]indole-10-carboxylic acid trihydrochloride]	< 100 nM
CNC(=O)c1cccc(COc2ccc3c(c2)N(CCN(C)C)CCn2c-3c(C3CCCCC3)c3ccc(C(=O)O)cc32)c1 [Example 1-590, 13-cyclohexyl-5-(2-dimethylaminoethyl)-3-(3-methylcarbamoylbenzyloxy)-6,7-dihydro-5H-benzo[5,6][1,4]diazepino[7,1-a]indole-10-carboxylic acid dihydrochloride]	< 100 nM
CN(C)CCN1CCn2c(c(C3CCCCC3)c3ccc(C(=O)O)cc32)-c2ccc(OCc3cccc(N(C)C)c3)cc21 [Example 1-591, 13-cyclohexyl-3-(3-dimethylaminobenzyloxy)-5-(2-dimethylaminoethyl)-6,7-dihydro-5H-benzo[5,6][1,4]diazepino[7,1-a]indole-10-carboxylic acid trihydrochloride]	< 100 nM
CCOc1ccc2c(c1)N(C)CCn1c-2c(C2CCCCC2)c2ccc(C(=O)O)cc21 [Example 1-592, 13-cyclohexyl-3-ethoxy-5-methyl-6,7-dihydro-5H-benzo[5,6][1,4]diazepino[7,1-a]indole-10-carboxylic acid]	< 100 nM
CN1CCn2c(c(C3CCCCC3)c3ccc(C(=O)O)cc32)-c2ccc(OCc3ccccc3)cc21 [Example 1-593, 3-benzyloxy-13-cyclohexyl-5-methyl-6,7-dihydro-5H-benzo[5,6][1,4]diazepino[7,1-a]indole-10-carboxylic acid]	< 100 nM
